According to article PMC11357446, “Searching for Novel HDAC6/Hsp90 Dual Inhibitors with Anti-Prostate Cancer Activity: In Silico Screening and In Vitro Evaluation” (Pharmaceuticals, 2024):
Like-named read-outs stand apart in the source and are kept apart here.

How the values were obtained:
HDAC6 = HDAC6 (UniProt ID: Q9UBN7); parameters: method as in ChEMBL [62]; conditions: ChEMBL record on recombinant protein; ref ChEMBL [62]; read-out: HDAC6 IC50 (Standard Value); cited from earlier work
Hsp90 = Hsp90 (UniProt ID: P07900); parameters: method as in ChEMBL [62]; conditions: ChEMBL record on recombinant protein; ref ChEMBL [62]; read-out: Hsp90 Ki (Standard Value); cited from earlier work
HDAC6 recombinant enzyme = target: T1, HDAC6 recombinant enzyme (Homo sapiens, UniProt Q9UBN7); assay: Fluorimetric HDAC6 assay; type: biochemical; conditions: singlicate
T1 sequence (Q9UBN7 1-1215): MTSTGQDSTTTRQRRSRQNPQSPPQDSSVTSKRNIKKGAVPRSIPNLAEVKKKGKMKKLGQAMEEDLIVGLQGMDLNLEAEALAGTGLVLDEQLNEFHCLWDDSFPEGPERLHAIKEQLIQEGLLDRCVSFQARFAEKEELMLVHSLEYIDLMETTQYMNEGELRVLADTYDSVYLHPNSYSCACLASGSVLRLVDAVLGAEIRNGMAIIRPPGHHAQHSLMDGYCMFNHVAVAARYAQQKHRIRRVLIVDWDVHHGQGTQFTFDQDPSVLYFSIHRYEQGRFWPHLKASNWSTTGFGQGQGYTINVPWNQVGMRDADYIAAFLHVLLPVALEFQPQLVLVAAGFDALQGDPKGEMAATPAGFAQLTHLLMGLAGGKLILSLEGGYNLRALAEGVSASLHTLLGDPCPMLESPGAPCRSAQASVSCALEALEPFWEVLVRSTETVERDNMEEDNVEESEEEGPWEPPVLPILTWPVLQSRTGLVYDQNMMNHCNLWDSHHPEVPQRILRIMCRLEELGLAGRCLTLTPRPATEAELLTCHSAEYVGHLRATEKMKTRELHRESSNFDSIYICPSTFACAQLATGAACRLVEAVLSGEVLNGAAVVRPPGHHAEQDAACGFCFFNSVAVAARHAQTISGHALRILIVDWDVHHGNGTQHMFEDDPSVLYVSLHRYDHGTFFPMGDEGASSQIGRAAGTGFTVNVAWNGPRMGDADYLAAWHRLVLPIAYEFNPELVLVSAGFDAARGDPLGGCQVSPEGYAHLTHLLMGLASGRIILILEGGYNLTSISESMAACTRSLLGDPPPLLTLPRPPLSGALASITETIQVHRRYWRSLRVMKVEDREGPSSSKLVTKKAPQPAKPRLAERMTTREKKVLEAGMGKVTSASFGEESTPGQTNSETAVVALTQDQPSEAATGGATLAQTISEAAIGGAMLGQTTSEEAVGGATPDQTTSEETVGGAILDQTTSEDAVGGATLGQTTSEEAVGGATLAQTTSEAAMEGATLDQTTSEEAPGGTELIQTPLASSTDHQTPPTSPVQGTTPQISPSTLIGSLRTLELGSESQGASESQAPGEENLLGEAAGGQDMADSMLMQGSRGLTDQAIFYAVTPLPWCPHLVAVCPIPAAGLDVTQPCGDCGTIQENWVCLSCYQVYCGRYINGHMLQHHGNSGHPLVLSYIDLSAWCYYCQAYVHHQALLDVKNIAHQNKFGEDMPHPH
Protocol: In vitro assessments of compounds on the HDAC6 enzyme were performed, as described in our previous works. […] The blank employed for curve fitting was evaluated on a solution of the buffer containing a concentration of […] of DMSO. IC50 values were calculated by using the GraphPad Prism 4 program based on a sigmoidal dose–response equation.

[1] = tested on: LNCaP prostate cancer cells; assay: Cell viability assay (PrestoBlue) on LNCaP cells; type: cell-based, human; conditions: Homo sapiens, LNCaP, 72 h, read-out: LNCaP GI50
Protocol: (§1) The human prostate cancer cell line PC-3 (ATCC Cat# CRL-1435) was grown in Ham’s F12 (Biowest, Nuaillé, France) medium, while the human prostate cancer cell line LNCaP (ATCC Cat# CRL-1740) was grown in RPMI 1640 (Biowest, Nuaillé, France) medium. Both media were supplemented with 10% Fetal Bovine Serum (FBS, Gibco, Fisher Scientific Italia, Segrate, Italy), 2 mM glutamine, 100 U/mL penicillin, and 100 μg/mL streptomycin. PC-3 and LNCaP cells were maintained at 37 °C in a humidified 5% CO2 atmosphere.
(§2) PC-3 and LNCaP cells were seeded at a density of 4000 and 6000 cells/well into a 96-well plate, respectively, together with a calibration curve of known cell numbers. The following day, the cells were treated with the indicated test compounds at different concentrations starting at 75μM with 2-fold serial dilutions. Cell viability was evaluated after 72h by colorimetric MTT (PC-3) or PrestoBlue™ (LNCaP) cell viability reagents. A total of 0.5 mg/mL of thiazolyl blue tetrazolium bromide (MTT) (Sigma-Aldrich, St. Louis, MO, USA) in Ham’s F12 medium was added to the wells, and the plate was incubated at 37 °C for 2 h. Medium containing unconverted MTT was removed, and 100 μL of MTT solvent (4 mM HCl, 0.1% NP40, in isopropyl alcohol) was added to the wells in order to solubilize MTT crystals. After 15 min of incubation at room temperature, the absorbance values at 570 nm were obtained with a Multiskan FC Microplate Photometer (Thermo Fisher Scientific, Waltham, MA, USA). PrestoBlue reagent (#A13261, Thermo Fisher Scientific, Waltham, MA, USA) was added to the medium (1:10 v/v) and incubated for 1 h at 37 °C. Cell viability was calculated by quantifying PrestoBlue reduction by measuring the absorbance at 570 and 620 nm, according to the manufacturer’s protocol. The viability of untreated cells was arbitrarily set at 100%, and the concentration at which cellular growth is inhibited by 50% (GI50) was determined. Three independent experiments were performed.

[2] = tested on: PC-3 prostate cancer cells; assay: Cell viability assay (MTT) on PC-3 cells; type: cell-based, human; conditions: Homo sapiens, PC-3, 72 h, read-out: PC-3 GI50
Protocol: as §1, §2

[3] = tested on: acetylated tubulin (Ac-Tub) in LNCaP cells; assay: Western blot of acetylated α-Tubulin in LNCaP cells; type: cell-based, human; conditions: 24 h at GI50 concentration, normalized with Tubulin
Protocol: To assess whether the observed antiproliferative activity of the selected compounds was a consequence of HDAC6-targeting, we examined the effect of the cell treatments on the expression levels of acetylated tubulin (Ac-Tub), a well-known HDAC6 target. LNCaP and PC-3 cells were treated with the tested compounds at their GI50 concentrations, and SDS-PAGE and western blot were performed. In addition, the acetylation levels of histone H3, which are mainly regulated by HDAC1, were also evaluated in order to exclude potential class I-HDAC off-target activities. We used Tubastatin-A and Geldanamycin as reference controls for cellular effects resulting from HDAC6- and Hsp90-inhibition, respectively. The results in Figure 2 show a significant increase in α-Tubulin acetylation in LNCaP cells after treatments with compounds 8, 11 and 18. Indeed, these compounds triggered a 2.9-, 5.1-, and 2.5-fold increase, respectively, compared to the control (DMSO). […].
Figure 2 Western blot analysis and relative quantification of the expression levels of acetylated-Tubulin (Ac-TUB), acetylated H3 (Ac-H3), and HSP70 in LNCaP (A,B) and PC-3 (C,D) cells treated for 24 h at GI50 concentration. Tubastatin-A was used as HDAC6-specific positive control, Geldanamycin (GELDA) as HSP90-specific positive control, and SAHA as pan-HDAC inhibitor. Protein expression was normalized with Tubulin levels (Ac-TUB and HSP70) or total H3 (Ac-H3). Quantification is reported as fold change in treated cells versus DMSO control (CTR), arbitrarily set at 1 (one sample t-test p-values: * p < 0.05, ** p < 0.01, *** p < 0.001, **** p < 0.0001; n = 3).
Cell treatment. PC-3 and LNCaP cells were grown in 12-well tissue-culture plates and treated with test compounds at the evaluated GI50 concentration for each candidate inhibitor for 24 h. DMSO was used as a negative control, while Tubastatin-A and Geldanamycin were used as positive controls for HDAC6 and Hsp90 inhibition, respectively. Vorinostat (SAHA) was used as a pan-HDACi control. […] Protein quantitation was performed with Pierce Detergent Compatible Bradford Assay (#23246, Thermo Fisher Scientific, MA, USA), and equivalent amounts of cellular extracts were resolved by SDS-PAGE, transferred to PVDF or Nitrocellulose membrane with Trans-Blot Turbo Transfer System (Bio-Rad, Hercules, CA, USA), and immunoblotted with the following primary antibodies, diluted 1:1000 in 1× TBS with 1 mg/mL BSA: Anti-Histone H3 (#PA5-16183, Invitrogen, Thermo Fisher Scientific, MA, USA), Anti-acetylated histone H3 (#sc-518011, Santa Cruz Biotechnology, Inc., Dallas, TX, USA), Anti-Tubulin (#E-AB-20073, Elabscience, Houston, TX, USA), Anti-acetylated α-tubulin (#sc-23950, Santa Cruz), and Anti-HSP70 (#4872S, Cell Signaling Technology, Inc., Danvers, MA, USA). […]

[4] = 72 h treatment, PrestoBlue, mean of three independent experiments ± SEM
[5] = 72 h treatment, MTT, mean of three independent experiments ± SEM

For O=C(/C=C/c1ccc2c(c1)C(=O)N(Cc1ccccc1)C2)NO [CHEMBL247217], the IC50 (HDAC6) is given as 230 nM.
For CC(C)(C)c1ccc(CN2Cc3ccc(/C=C/C(=O)NO)cc3C2=O)cc1 [CHEMBL247218], the IC50 (HDAC6) is given as 990 nM.
In the case of O=C(NO)c1ccc(CN2C(=O)CNC(=O)[C@H]2Cc2c[nH]c3ccccc23)cc1 [CHEMBL481719], the IC50 (HDAC6) is given as 110 nM.
For O=C(Cc1ccc(-c2noc(C(F)(F)F)n2)cc1)N1CCOCC1 [CHEMBL3688148], the IC50 (HDAC6) is listed as 5500 nM.
In the case of O=C(NCc1ccc(CN2CCOCC2)cc1)c1ccc(-c2noc(C(F)(F)F)n2)cc1 [CHEMBL3692580], the IC50 (HDAC6) is listed as 5700 nM.
In the case of O=C(Nc1ccncc1)c1ccc(-c2noc(C(F)(F)F)n2)cc1 [CHEMBL3692583], the IC50 (HDAC6) is listed as 2100 nM.
In the case of O=C(Nc1cccnc1)c1ccc(-c2noc(C(F)(F)F)n2)cc1 [CHEMBL3692584], the IC50 (HDAC6) is listed as 4800 nM.
For O=C(NC1CCCCC1O)c1ccc(-c2noc(C(F)(F)F)n2)cc1 (centres unmarked) [CHEMBL3692597], the IC50 (HDAC6) is listed as 7100 nM.
For COc1cc(NC(=O)c2ccc(-c3noc(C(F)(F)F)n3)cc2)ccn1 [CHEMBL3692603], the IC50 (HDAC6) is listed as 8300 nM.
In the case of Cc1cc(NC(=O)c2ccc(-c3noc(C(F)(F)F)n3)cc2)cc(C)n1 [CHEMBL3692604], the IC50 (HDAC6) is given as 5300 nM.
In the case of N#Cc1cc(NC(=O)c2ccc(-c3noc(C(F)(F)F)n3)cc2)ccn1 [CHEMBL3692609], the IC50 (HDAC6) is listed as 6100 nM.
In the case of O=C(Nc1ccnc(C(F)(F)F)c1)c1ccc(-c2noc(C(F)(F)F)n2)cc1 [CHEMBL3692610], the IC50 (HDAC6) is given as 8600 nM.
For Cc1cc(NC(=O)c2ccc(-c3noc(C(F)(F)F)n3)cc2F)cc(C)n1 [CHEMBL3692624], the IC50 (HDAC6) is given as 2500 nM.
For C[C@H](CN1CCCCC1)NC(=O)c1ccc(-c2noc(C(F)(F)F)n2)cc1F [CHEMBL3692663], the IC50 (HDAC6) is listed as 3000 nM.
For C[C@H](CN1CCOCC1)NC(=O)c1ccc(-c2noc(C(F)(F)F)n2)cc1 [CHEMBL3692680], the IC50 (HDAC6) is listed as 6700 nM.
For C[C@H](CN1CCOCC1)NC(=O)c1ccc(-c2noc(C(F)(F)F)n2)cc1F [CHEMBL3692681], the IC50 (HDAC6) is listed as 3200 nM.
For CC(C)c1nc2ccccc2n1Cc1ccc(C(=O)NO)cc1 [CHEMBL3926575], the IC50 (HDAC6) is given as 47 nM.
In the case of Cc1c(C)n(Cc2ccc(C(=O)NO)cc2)c2ccccc12 [CHEMBL3971436], the IC50 (HDAC6) is listed as 4.08 nM.
For CCNC(=O)c1noc(-c2cc(Cl)c(O)cc2O)c1-c1ccc(CN2CCOCC2)cc1C [CHEMBL4060353], the Ki (Hsp90) is listed as 32 nM.
For CC(C)CN1CC(=O)N2Cc3c(c4ccccc4n3Cc3ccc(C(=O)NO)cc3)CC2C1=O (centres unmarked) [CHEMBL4284297], the IC50 (HDAC6) is given as 3.78 nM.
In the case of CN1CC(=O)N2Cc3c(c4ccccc4n3Cc3ccc(C(=O)NO)cc3)CC2C1=O (centres unmarked) [CHEMBL4292944], the IC50 (HDAC6) is listed as 13.6 nM.
In the case of CC(C)(C)c1cc2ccccc2n1Cc1ccc(C(=O)NO)cc1 [CHEMBL4468860], the IC50 (HDAC6) is given as 2000 nM.
In the case of N#Cc1ccc(NC(=O)c2cccc(-c3noc(C(F)(F)F)n3)c2)c(O)c1 [Compound 4], the IC50 (HDAC6 recombinant enzyme) is reported as 17 µM, the GI50 [1, 4] is reported as 9.5 ± 0.7 µM and the GI50 [2, 5] is reported as 9.5 ± 0.5 µM.
COC1=C2C[C@@H](C)C[C@H](OC)[C@H](O)[C@@H](C)/C=C(\C)[C@H](OC(N)=O)[C@@H](OC)/C=C\C=C(/C)C(=O)NC(=CC1=O)C2=O [Geldanamycin] showed a GI50 [1, 4] of 0.05 ± 0.02 µM and a GI50 [2, 5] of 0.03 ± 0.02 µM.
In the case of O=C(CCCCCCC(=O)Nc1ccccc1)NO [SAHA, Vorinostat], the GI50 [1] is reported as 1.3 ± 0.3 µM and the GI50 [2] is reported as 1.9 ± 0.2 µM.
For CN1CCc2c(c3ccccc3n2Cc2ccc(C(=O)NO)cc2)C1 [Tubastatin-A], the GI50 [1, 4] was 5.9 ± 1.5 µM, the GI50 [2, 5] was 11.1 ± 1.6 µM and the “α-Tubulin acetylation, fold increase compared to the control (DMSO)” value [3] was 3.3 fold.
